According to patent publication US20080292619A1, “Pharmaceutical Composition Containing Meltrin Antagonist” (MOCHIDA PHARMACEUTICAL CO., LTD., priority 2004, published 2008):
In the oligonucleotide strings, read from the 5' end, every base follows the letter of its sugar. An asterisk marks phosphorothioate; unmarked linkages are phosphodiester. Other units and linkages are bracketed, terminal groups are in braces. A string of capitals states the bases alone. d = 2'-deoxy (DNA)

Tested on: human meltrin α RNA
Assay: Suppression of human meltrin α expression by antisense compound in RD cell (real time PCR)
Type: cell-based
Details: RD cell, corrected by GAPDH
How it was run: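 RD cells transfected with heat-denatured antisense oligodeoxynucleotide plus Lipofectin in Opti-MEM for 4 h at 37° C, then cultured 18 h. Meltrin α RNA quantified by TaqMan RT-PCR against plasmid standard curve, GAPDH-corrected; suppression vs untreated cells, rated +/++/+++ for ≥30/50/70%.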

Row | Substance | suppression rate of expression, 50 nM | suppression rate of expression, 200 nM
1 | H004: ctggcacaagccagccttga (CTGGCACAAGCCAGCCTTGA; antisense; DNA, all phosphorothioate, methylation of C not given here) | + (“+” when the suppression rate was at least 30%) | +++ (“+++” when the suppression rate was at least 70%)
2 | H032: aatttcgagcgagggagaca (AATTTCGAGCGAGGGAGACA; antisense; DNA, all phosphorothioate, methylation of C not given here) |  | + (“+” when the suppression rate was at least 30%)
3 | H250: atctaaggatttgggcatct (DNA dA*dT*dC*dT*dA*dA*dG*dG*dA*dT*dT*dT*dG*dG*dG*dC*dA*dT*dC*dT; antisense) |  | + (“+” when the suppression rate was at least 30%)
4 | H181: gccagatttctcccaggtgt (dG*dC*dC*dA*dG*dA*dT*dT*dT*dC*dT*dC*dC*dC*dA*dG*dG*dT*dG*dT; antisense) |  | ++ (“++” when the suppression rate was at least 50%)
5 | H234: acaccgggaaagtgaaatgc (DNA dA*dC*dA*dC*dC*dG*dG*dG*dA*dA*dA*dG*dT*dG*dA*dA*dA*dT*dG*dC; antisense) |  | ++ (“++” when the suppression rate was at least 50%)
6 | H069: catcccgaaattgtggccca (dC*dA*dT*dC*dC*dC*dG*dA*dA*dA*dT*dT*dG*dT*dG*dG*dC*dC*dC*dA; antisense) |  | + (“+” when the suppression rate was at least 30%)
7 | H068: gctcatgtgccagggtcacg (dG*dC*dT*dC*dA*dT*dG*dT*dG*dC*dC*dA*dG*dG*dG*dT*dC*dA*dC*dG; antisense) |  | + (“+” when the suppression rate was at least 30%)
8 | H012: gccgagcggggccgggcgtc (GCCGAGCGGGGCCGGGCGTC; antisense; DNA, all phosphorothioate, methylation of C not given here) |  | +++ (“+++” when the suppression rate was at least 70%)
9 | H139 + 10: tgcacgtggggcccggtgga (TGCACGTGGGGCCCGGTGGA; antisense; DNA, all phosphorothioate, methylation of C not given here) | + (“+” when the suppression rate was at least 30%) | 
10 | H041: gcttcttcgctgggaagagt (GCTTCTTCGCTGGGAAGAGT; antisense; DNA, all phosphorothioate, methylation of C not given here) |  | + (“+” when the suppression rate was at least 30%)
11 | H144 + 17: gccagaggatctgcaggcag (GCCAGAGGATCTGCAGGCAG; antisense; DNA, all phosphorothioate, methylation of C not given here) | +++ (“+++” when the suppression rate was at least 70%) | 
12 | H148 + 5: ccaggcggagcccagtctcc (dC*dC*dA*dG*dG*dC*dG*dG*dA*dG*dC*dC*dC*dA*dG*dT*dC*dT*dC*dC; antisense) | + (“+” when the suppression rate was at least 30%) | 
13 | H046: tgccttcttgcccatgtctg (TGCCTTCTTGCCCATGTCTG; antisense; DNA, all phosphorothioate, methylation of C not given here) |  | ++ (“++” when the suppression rate was at least 50%)
14 | H141 + 15: cctaagtgcaggcttggctg (CCTAAGTGCAGGCTTGGCTG; antisense; DNA, all phosphorothioate, methylation of C not given here) | + (“+” when the suppression rate was at least 30%) | 
15 | H134: atctcctgggattgtccttc (ATCTCCTGGGATTGTCCTTC; antisense; DNA, all phosphorothioate, methylation of C not given here) | + (“+” when the suppression rate was at least 30%) | ++ (“++” when the suppression rate was at least 50%)
16 | H016: gggcgcgctgccatcgtcgc (GGGCGCGCTGCCATCGTCGC; antisense; DNA, all phosphorothioate, methylation of C not given here) | + (“+” when the suppression rate was at least 30%) | ++ (“++” when the suppression rate was at least 50%)
17 | H072: gcagcctcctttctcaaccg (dG*dC*dA*dG*dC*dC*dT*dC*dC*dT*dT*dT*dC*dT*dC*dA*dA*dC*dC*dG; antisense) |  | + (“+” when the suppression rate was at least 30%)
18 | H145 + 2: ttctggccagaggatctgca (dT*dT*dC*dT*dG*dG*dC*dC*dA*dG*dA*dG*dG*dA*dT*dC*dT*dG*dC*dA; antisense) | +++ (“+++” when the suppression rate was at least 70%) | 

Row | Substance | suppression rate of expression, 50 nM | suppression rate of expression, 200 nM
19 | H196: agggaggtggcggtttgcag (dA*dG*dG*dG*dA*dG*dG*dT*dG*dG*dC*dG*dG*dT*dT*dT*dG*dC*dA*dG; antisense) | + (“+” when the suppression rate was at least 30%) | +++ (“+++” when the suppression rate was at least 70%)
20 | H165: aaaactcagtgatggtaaaa (dA*dA*dA*dA*dC*dT*dC*dA*dG*dT*dG*dA*dT*dG*dG*dT*dA*dA*dA*dA; antisense) |  | + (“+” when the suppression rate was at least 30%)
21 | H136 + 15: gggacattcaggccgttgag (GGGACATTCAGGCCGTTGAG; antisense; DNA, all phosphorothioate, methylation of C not given here) | + (“+” when the suppression rate was at least 30%) | 
22 | H080: caaatctgttcccacacttc (dC*dA*dA*dA*dT*dC*dT*dG*dT*dT*dC*dC*dC*dA*dC*dA*dC*dT*dT*dC; antisense) |  | + (“+” when the suppression rate was at least 30%)
23 | H146: catgagtgagccgagttgtt (dC*dA*dT*dG*dA*dG*dT*dG*dA*dG*dC*dC*dG*dA*dG*dT*dT*dG*dT*dT; antisense) | + (“+” when the suppression rate was at least 30%) | ++ (“++” when the suppression rate was at least 50%)
24 | H139 + 11: gtgcacgtggggcccggtgg (GTGCACGTGGGGCCCGGTGG; antisense; DNA, all phosphorothioate, methylation of C not given here) | + (“+” when the suppression rate was at least 30%) | 
25 | H013: ctgcaccatcccacgcgggc (CTGCACCATCCCACGCGGGC; antisense; DNA, all phosphorothioate, methylation of C not given here) | + (“+” when the suppression rate was at least 30%) | ++ (“++” when the suppression rate was at least 50%)
26 | H036: acacgtgctgagactgactg (ACACGTGCTGAGACTGACTG; antisense; DNA, all phosphorothioate, methylation of C not given here) |  | ++ (“++” when the suppression rate was at least 50%)
27 | H011: gcgaccggagggatttcctg (GCGACCGGAGGGATTTCCTG; antisense; DNA, all phosphorothioate, methylation of C not given here) | + (“+” when the suppression rate was at least 30%) | ++ (“++” when the suppression rate was at least 50%)
28 | H131 + 5: ttttccaaggtggccgaggt (TTTTCCAAGGTGGCCGAGGT; antisense; DNA, all phosphorothioate, methylation of C not given here) | + (“+” when the suppression rate was at least 30%) | 
29 | H133 + 5: ccttcggtgggtaggaatct (CCTTCGGTGGGTAGGAATCT; antisense; DNA, all phosphorothioate, methylation of C not given here) | + (“+” when the suppression rate was at least 30%) | 
30 | H091: ttggctgggcagtgagggct (dT*dT*dG*dG*dC*dT*dG*dG*dG*dC*dA*dG*dT*dG*dA*dG*dG*dG*dC*dT; antisense) |  | ++ (“++” when the suppression rate was at least 50%)
31 | H217: ggaagttgataagcaagttg (dG*dG*dA*dA*dG*dT*dT*dG*dA*dT*dA*dA*dG*dC*dA*dA*dG*dT*dT*dG; antisense) |  | +++ (“+++” when the suppression rate was at least 70%)
32 | H089: ggaggtcacaggagttgctg (dG*dG*dA*dG*dG*dT*dC*dA*dC*dA*dG*dG*dA*dG*dT*dT*dG*dC*dT*dG; antisense) |  | + (“+” when the suppression rate was at least 30%)
33 | H148 + 10: gggtgccaggcggagcccag (dG*dG*dG*dT*dG*dC*dC*dA*dG*dG*dC*dG*dG*dA*dG*dC*dC*dC*dA*dG; antisense) | ++ (“++” when the suppression rate was at least 50%) | 
34 | H099: aggatcacctgcagaattga (dA*dG*dG*dA*dT*dC*dA*dC*dC*dT*dG*dC*dA*dG*dA*dA*dT*dT*dG*dA; antisense) |  | + (“+” when the suppression rate was at least 30%)
35 | H150 + 10: atctgggcacttggtgtgga (dA*dT*dC*dT*dG*dG*dG*dC*dA*dC*dT*dT*dG*dG*dT*dG*dT*dG*dG*dA; antisense) | ++ (“++” when the suppression rate was at least 50%) | 
